Data reported in patent US20040171688A1, “Carboxylic acids and derivatives thereof and pharmaceutical compositions containing them” (priority 1997, published 2004).

Experiments:
[1] = target: T1, HNF-4α (Rattus norvegicus, UniProt P22449); test: Ligand binding assay with [3H]palmitoyl(16:0)-CoA on recombinant GST-HNF-4α(LBD) or His-HNF-4α
T1 construct: GST-HNF-4α(LBD) fusion protein consisting of amino acids 96-455 of wild type HNF-4α fused to GST; fused on or other part: Glutathione-S-transferase (GST) at the N-terminus of the LBD construct; 6-histidine tag on the full-length construct
T1 sequence (P22449 105-464 isoform P22449-2 limits assumed): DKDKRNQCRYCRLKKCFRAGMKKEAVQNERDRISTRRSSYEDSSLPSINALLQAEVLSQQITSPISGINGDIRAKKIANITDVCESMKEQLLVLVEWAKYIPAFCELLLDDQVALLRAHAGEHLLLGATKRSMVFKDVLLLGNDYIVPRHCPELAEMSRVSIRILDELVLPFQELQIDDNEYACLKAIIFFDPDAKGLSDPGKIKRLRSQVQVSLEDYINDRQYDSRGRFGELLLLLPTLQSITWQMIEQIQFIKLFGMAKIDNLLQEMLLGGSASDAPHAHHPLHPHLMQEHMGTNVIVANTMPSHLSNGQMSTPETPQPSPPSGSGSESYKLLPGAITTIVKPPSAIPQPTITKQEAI
Protocol: a. […] The respective recombinant proteins are incubated to equilibrium with [^3H]palmitoyl(16:0)-CoA (0.05 μCi) and with increasing nonlabeled palmitoyl(16:0)-CoA as indicated.
b. […] The respective recombinant proteins are incubated with 8 nM of [^3H]palmitoyl(16:0)-CoA (60 Ci/mmol) and with increasing nonlabeled myristoyl(14:0)-CoA as indicated. Percent bound refers to radiolabeled [^3H]palmitoyl(16:0)-CoA in the bound fraction. […] Percent bound refers to radiolabeled [^3H]palmitoyl(16:0)-CoA in the bound fraction.
Rat HNF-4α1 cDNA(pLEN4S)^1 was subcloned into the glutathione-S-transferase (GST) encoding pGEX-2T plasmid (Pharmacia) and the resultant plasmid was cleaved with smaI and AccI and religated to yield the GST-HNF-4α(LBD) fusion plasmid. […] The full length HNF-4α1 cDNA cloned into 6His-pET11d vector was expressed in E.coli BL21 (DE3)plysS.
Recombinant GST-HNF-4α(LBD) (100 pmol) or His-HNF-4α (100 pmol) were incubated for 60 min at 22° C. with [^3H]palmitoyl(16:0)-CoA (American RadiolabeledChemicals) in 100 μl of 10 mM phosphate buffer (pH 7.4). Competitor ligands or solvent carrier were added as indicated. Free and HNF-4α bound ^3[H]palmitoyl(16:0)-CoA were separated by […] and bound ligand was quantified by liquid scintillation counting. Nonspecific binding of [^3H]palmitoyl(16:0)-CoA was determined by its binding to the GST moiety or to carbonic anhydrase as nonrelevant protein.
Binding was exemplified with either the ligand binding domain of HNF-4α fused to glutathione-s-transferase (GST-HNF-4α(LBD)) or the full length HNF-4α protein tagged by 6 histidines (His-HNF-4α).

[2] = target: T2, HNF-4α (Rattus norvegicus, UniProt P22449); test: In vitro transcription assay induced by His-HNF-4α with HeLa nuclear extract; type: biochemical; parameters: The full length HNF-4α1 cDNA cloned into 6His-pET11d vector was expressed in E.coli BL21 (DE3)plysS; 6His; made in house; host or cells: E. coli BL21 (DE3)plysS
T2 sequence (P22449 1-464 isoform P22449-2): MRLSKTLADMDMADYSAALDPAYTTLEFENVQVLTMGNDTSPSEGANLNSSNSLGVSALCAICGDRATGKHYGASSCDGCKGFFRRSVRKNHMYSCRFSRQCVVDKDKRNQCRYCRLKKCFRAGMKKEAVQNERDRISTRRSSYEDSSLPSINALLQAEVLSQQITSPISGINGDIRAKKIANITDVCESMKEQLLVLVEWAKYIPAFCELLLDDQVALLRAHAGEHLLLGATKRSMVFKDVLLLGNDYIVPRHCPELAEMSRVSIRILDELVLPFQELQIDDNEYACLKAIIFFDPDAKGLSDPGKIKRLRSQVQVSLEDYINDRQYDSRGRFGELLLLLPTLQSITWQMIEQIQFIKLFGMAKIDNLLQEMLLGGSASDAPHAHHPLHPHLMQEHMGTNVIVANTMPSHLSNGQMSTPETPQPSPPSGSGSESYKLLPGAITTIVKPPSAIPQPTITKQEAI
Protocol: a. Representative experiments showing in vitro transcription of the test template in the presence of increasing concentrations of His-HNF-4I and in the absence (lanes 1-3, 7-9) or presence of 10 μM of added palmitoyl(16:0)-CoA (lanes 4-6) or stearoyl(18:0)-CoA (lanes 10,11) as indicated. Correctly initiated transcripts of the test and control templates are denoted by (→) and ? , respectively.
b. HNF-4I-induced in vitro transcription in the absence (empty bars) or presence of 10 μM each of added palmitoyl(16:0)-CoA (filled bars) or stearoyl(18:0)-CoA (hatched bars). Fold transcription indicates the ratio of specific transcript produced by the test template over transcript from the control template normalized to the ratio observed without HNF-4a. The figure summarizes 5 independent experiments for each acyl-CoA. *-Significant as compared with the respective value in the absence of added ligand.
Reaction mixture contained 20 mM Hepes-KOH (pH 7.9), 5 mM MgCl2, 60 mM KCl, 8% glycerol, 2 mM DTT, 1 mM 3′-O-methyl-GTP, 10 units of T1RNase, 20 units of RNasin, 0.5 μg sonicated salmon sperm DNA and His-HNF-4α and test ligand as indicated. The mixture was preincubated for 30 min at 22° C. followed by adding 10 ng of pAdML200 control template consisting of the adenovirus major-late promoter (−400/+10) linked to a 200 bp G-less cassette and 200 ng of the test template consisting of three C3P copies of the apo CIII promoter sequence (−87/−66) upstream to a synthetic ovalbumin TATA box promoter in front of a 377 bp-G-less cassette. The mixture was further preincubated for 10 min at 22° C. followed by adding 40 μg of HeLa nuclear extract with additional preincubation for 30 min at 30° C. 0.5-mM ATP, 0.5 mM CTP, 25 μM UTP, and 10 μCi of [α-^32P]UTP (s.a. […], Amersham) were then added and the complete reaction mixture was incubated for 45 min at 30° C. in a final volume of 25 μl. The reaction was terminated by adding 175 μl of stop mix (0.1 M sodium acetate (pH 5.2), 10 mM EDTA, 0.1% SDS, 200 μg/ml tRNA) followed by phenol extraction and ethanol precipitation. RNA was resuspended in sample buffer containing 80% formamide and 10 mM Tris-HCl (pH 7.4) and separated on 5% polyacrylamide gel containing 7 M urea in TBE. Correctly initiated transcripts were quantitated by PhosphorImager analysis. The test DNA template was constructed by inserting into pC2AT19 plasmid a PCR-amplified oligonucleotide prepared by using the (C3P)3-TK-CAT plasmid as template and consisting of three copies of the C3P element of the Apo CIII promoter sequence (−87/−66) having an ECoRI and SSTI sites at the 5′ and 3′ ends, respectively. The resultant plasmid was cleaved with sphI and sacI and ligated to a synthetic oligonucleotide (5′-CGAGGTCCAC-[…]-3′) containing sequences of the HSV thymidine kinase promoter (−41/−29) and of the chicken ovalbumin promoter (−33/−21).
The effect of agonistic and antagonistic HNF-4α-ligands was further evaluated by analyzing the in vitro transcription rate, catalyzed by added HeLa nuclear extract and induced by recombinant HNF-4α, of a test template consisting of a 377 bp G-less cassette promoted by sequences of the HSV thymidine kinase and chicken ovalbumin promoters and enhanced by three C3P copies of the apo Clil gene promoter. Transcriptional activation by HNF-4α was evaluated in the presence and in the absence of added representative long chain fatty acyl-CoAs. […]

[3] = dietary fatty acid; cited from earlier work
[4] = target: T2, HNF-4α; test: Transfection assay: COS-7 cells cotransfected with (C3P)3-TK-CAT reporter and pSG5-HNF-4α; type: cell-based; parameters: expressed in transfected cells; host or cells: COS-7; conditions: free fatty acids added to culture medium of COS-7 cells (FIG. 4a)
Protocol: a. […] Fold induction of CAT activity by transfected HNF-4I is determined by evaluating CAT activity in the presence of pSG5-HNF-4I as compared with pSG5 plasmid and as function of respective fatty acids added to the culture medium as indicated. The figure summarizes 3-4 independent experiments for each fatty acid. Mean ± S.E.
b. […] Fold induction refers to CAT activity in cells incubated with 3,3,12,12-tetramethyl-tetradecanedioic acid (∘), 3,3,14,14-tetramethyl-hexadecanedioic acid (□) and 3,3,16,16-tetramethyl-octadecanedioic acid (Δ) proligands normalized to the activity in cells incubated in the absence of added proligands.
COS-7 cells cotransfected for 6 h with the (C3P)3-TK-CAT reporter plasmid (5 μg) and with either the pSG5-HNF-4α expression plasmid ([…]) or the pSG5 plasmid (0.025 μg) added by calcium phosphate precipitation were cultured in serum free medium with fatty acids (complexed with albumin in a molar ratio of 6:1) added as indicated. β-Galactosidase expression vector pRSGAL (1 μg) added to each precipitate served as an internal control for transfection. The (C3P)3-TK-CAT construct was prepared by inserting a synthetic oligonucleotide encompassing the (−87/−66) Apo CIII promoter sequence (5′-[…]-3′) flanked by HindIII restriction site into pBLCAT2^47 upstream of the −105 bp thymidine kinase promoter. The construct containing three copies of the synthetic oligonucleotide in the direct orientation was selected and confirmed by sequencing.
The intracellular effect of HNF-4α ligands on HNF-4α mediated transcription was evaluated in COS-7 cells cotransfected with an expression vector for HNF-4α and with a CAT reporter plasmid driven by a thymidine kinase promoter and enhanced by one to three C3P copies of the apo CIII gene promoter. Transfected cells were incubated in the presence of free fatty acids and xenobiotic amphipathic carboxylates representing agonistic or antagonistic HNF-4α proligands.

[5] = dietary fatty acid; cited from earlier work; remark: listed apart in the source

| SMILES | maximal binding ([1]; Scatchard analysis) | binding ratio at saturation ([1]; at saturation (FIG. 1A)) | EC50 ([1]; competition with 8 nM [3H]palmitoyl(16:0)-CoA, GST-HNF-4α(LBD) or His-HNF-4α, read-out: EC50 (50% specific competition)) [nM] | Kd ([1]; saturation binding of [3H]palmitoyl(16:0)-CoA, Scatchard analysis, GST-HNF-4α(LBD) or His-HNF-4α, read-out: dissociation constant (Kd)) [nM] | effect on HNF-4α induced in vitro transcription ([2]; 10 μM added acyl-CoA (FIG. 3)) | HNF-4α transcriptional activity, agonist/antagonist character (summary) ([2]; summary statement of Example 4) | plasma VLDL-, LDL- and HDL-cholesterol [3] | effect on HNF-4α dependent transcription (CAT activity) [4] | blood lipids [3] | factor VII content and blood coagulability [5] |
| --- | --- | --- | --- | --- | --- | --- | --- | --- | --- | --- |
| CCCCCCCCCCCCCCCC(=O)SCCNC(=O)CCNC(=O)[C@H](O)C(C)(C)COP(=O)(O)OP(=O)(O)OC[C@H]1O[C@@H](n2cnc3c(N)ncnc32)[C@H](O)[C@@H]1OP(=O)(O)O [Palmitoyl(16:0)-CoA, reference compound] | 1 mol palmitoyl(16:0)-CoA/mol HNF-4I | ~1 mole of fatty acyl-CoA/mole of HNF-4α | 2600 | 2600 | activated | activators | – | – | – | – |
| CCCCCCCCCCCCCC(=O)O [myristic(14:0), myristic(14:0) acid] | – | – | – | – | – | – | increase | dose dependent activation | – | – |
| CCCCCCCCCCCCCCCCCC(=O)O [stearic(18:0), stearic(18:0) acid] | – | – | – | – | – | – | – | suppressive | lowering | decrease |
